Assay results published in patent US9883669B2, “Maintenance medium for primate pluripotent stem cells” (priority 2014, dated 2018).

System: human iPS cells (253G1 lines and 201B7 lines)
Experiment: Observation of colony morphology of human iPS cells by light microscope
Type: cell-based
Details: xylose 3 g/L, 0, 24, 48, 72 hours, KSR
Method: During culture period, medium change was performed daily.
For a xylose medium for iPS cells in which xylose concentrations were 3 g/L and 15 g/L, the morphology of iPS cell colonies at 96 and 120 hours after culture was also observed with a light microscope (IX70, manufactured by Olympus Corporation).

Compound: O=C[C@H](O)[C@@H](O)[C@H](O)CO [D-xylose]
- colony morphology and proliferation inhibitory effects, D-xylose versus L-xylose: no differences

Compound: O=C[C@@H](O)[C@H](O)[C@@H](O)CO [L-xylose]
- colony morphology and proliferation inhibitory effects, D-xylose versus L-xylose: no differences
